Reference: PubChem BioAssay (NCI)
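Compound exposure: 48 hours, 5 concentrations, 96-well plates. TGI is the concentration that stops growth completely.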

Tests used:
Assay in all cases: DTP human tumour cell line panel, 48 h
UO-31 renal = test system: UO-31 renal
NCI-H460 lung = test system: NCI-H460 lung
SNB-19 CNS = test system: SNB-19 CNS
NCI/ADR-RES ovarian = test system: NCI/ADR-RES ovarian
DU-145 prostate = test system: DU-145 prostate
KM12 colon = test system: KM12 colon
ACHN renal = test system: ACHN renal
HCT-15 colon = test system: HCT-15 colon
SF-295 CNS = test system: SF-295 CNS
HOP-92 NSCLC = test system: HOP-92 NSCLC

Structure (SMILES): O=S(=O)(c1cc(Cl)ccc1Cl)n1ccnc1
- TGI (UO-31 renal): > 100 µM
- TGI (NCI-H460 lung): > 100 µM
- TGI (SNB-19 CNS): > 100 µM
- TGI (NCI/ADR-RES ovarian): 45.7 µM
- TGI (DU-145 prostate): > 100 µM
- TGI (KM12 colon): > 100 µM
- TGI (ACHN renal): > 100 µM
- TGI (HCT-15 colon): 89.5 µM
- TGI (SF-295 CNS): > 100 µM
- TGI (HOP-92 NSCLC): > 100 µM

Structure (SMILES): CN(C)CCCNC(=O)c1cc(NC(=O)c2cc(NC(=O)CCCn3c4ccccc4c4ccccc43)cn2C)cn1C
- TGI (UO-31 renal): > 58.2 µM
- TGI (NCI-H460 lung): > 94 µM
- TGI (SNB-19 CNS): 28.3 µM
- TGI (NCI/ADR-RES ovarian): 53.2 µM
- TGI (DU-145 prostate): 40.8 µM
- TGI (KM12 colon): 43.9 µM
- TGI (ACHN renal): > 65.9 µM
- TGI (HCT-15 colon): > 75.5 µM
- TGI (SF-295 CNS): > 69.7 µM
- TGI (HOP-92 NSCLC): 40.1 µM

Structure (SMILES): N#CC1(O)CCCCCCCCCCC1
- TGI (UO-31 renal): > 100 µM
- TGI (NCI-H460 lung): > 100 µM
- TGI (SNB-19 CNS): > 100 µM
- TGI (NCI/ADR-RES ovarian): > 100 µM
- TGI (DU-145 prostate): > 100 µM
- TGI (KM12 colon): > 100 µM
- TGI (ACHN renal): > 100 µM
- TGI (HCT-15 colon): > 100 µM
- TGI (SF-295 CNS): > 100 µM
- TGI (HOP-92 NSCLC): > 100 µM

Structure (SMILES): CSc1nc(NC(C)C)c2c(n1)Sc1nc3ccccc3n1N=C2
- TGI (UO-31 renal): 25.6 µM
- TGI (NCI-H460 lung): 79.5 µM
- TGI (SNB-19 CNS): 39 µM
- TGI (NCI/ADR-RES ovarian): 46.7 µM
- TGI (DU-145 prostate): 31.3 µM
- TGI (KM12 colon): 60.9 µM
- TGI (ACHN renal): 20.9 µM
- TGI (HCT-15 colon): > 100 µM
- TGI (SF-295 CNS): 24.1 µM
- TGI (HOP-92 NSCLC): 31.2 µM

Structure (SMILES): CCCCC1=C(C(=O)N2CCOCC2)C2(OCCO2)C1=O
- TGI (UO-31 renal): 30.3 µM
- TGI (NCI-H460 lung): > 100 µM
- TGI (SNB-19 CNS): 43.2 µM
- TGI (NCI/ADR-RES ovarian): 57.2 µM
- TGI (DU-145 prostate): > 100 µM
- TGI (KM12 colon): 55.9 µM
- TGI (ACHN renal): 34.8 µM
- TGI (HCT-15 colon): 40.3 µM
- TGI (SF-295 CNS): > 100 µM
- TGI (HOP-92 NSCLC): 66.4 µM

Structure (SMILES): Cc1cc(S(=O)(=O)/N=C(/C(=C=[N-])C#N)[n+]2ccc(N(C)C)cc2)c(SCC(=O)O)cc1Cl
- TGI (UO-31 renal): > 100 µM
- TGI (NCI-H460 lung): > 100 µM
- TGI (SNB-19 CNS): > 100 µM
- TGI (NCI/ADR-RES ovarian): > 100 µM
- TGI (DU-145 prostate): > 100 µM
- TGI (KM12 colon): > 100 µM
- TGI (ACHN renal): > 100 µM
- TGI (HCT-15 colon): > 100 µM
- TGI (SF-295 CNS): > 100 µM
- TGI (HOP-92 NSCLC): 70.4 µM

Structure (SMILES): OCCOCn1nncc1Cn1ncc2c(SCc3ccccc3)ncnc21
- TGI (UO-31 renal): > 100 µM
- TGI (NCI-H460 lung): > 100 µM
- TGI (SNB-19 CNS): > 100 µM
- TGI (NCI/ADR-RES ovarian): > 100 µM
- TGI (DU-145 prostate): > 100 µM
- TGI (KM12 colon): > 100 µM
- TGI (ACHN renal): > 100 µM
- TGI (HCT-15 colon): > 100 µM
- TGI (SF-295 CNS): > 100 µM
- TGI (HOP-92 NSCLC): > 100 µM

Structure (SMILES): Cc1cc(C)c(S(=O)(=O)N(CCCN)OCCCON(CCCN)S(=O)(=O)c2c(C)cc(C)cc2C)c(C)c1
- TGI (UO-31 renal): 30.4 µM
- TGI (NCI-H460 lung): 3.18 µM
- TGI (SNB-19 CNS): 3.17 µM
- TGI (NCI/ADR-RES ovarian): 36.4 µM
- TGI (DU-145 prostate): 3.15 µM
- TGI (KM12 colon): 3.79 µM
- TGI (ACHN renal): 28.9 µM
- TGI (HCT-15 colon): 34.8 µM
- TGI (SF-295 CNS): 21.4 µM
- TGI (HOP-92 NSCLC): 5.27 µM

Structure (SMILES): CN(C)CC1CCC/C(=C\c2ccc(OC(=O)c3ccc(Cl)cc3)cc2)C1=O (stereo not given)
- TGI (UO-31 renal): 2.97 µM
- TGI (NCI-H460 lung): 17.5 µM
- TGI (SNB-19 CNS): 13.7 µM
- TGI (NCI/ADR-RES ovarian): 4.99 µM
- TGI (DU-145 prostate): 6.79 µM
- TGI (KM12 colon): 5.9 µM
- TGI (ACHN renal): 8.44 µM
- TGI (HCT-15 colon): 3.3 µM
- TGI (SF-295 CNS): 9.84 µM
- TGI (HOP-92 NSCLC): 4.75 µM

Structure (SMILES): COc1ccc(Nc2nc(N)c(C(=O)c3c[nH]c4ccccc34)s2)cc1
- TGI (UO-31 renal): > 100 µM
- TGI (NCI-H460 lung): 6.83 µM
- TGI (SNB-19 CNS): > 100 µM
- TGI (NCI/ADR-RES ovarian): 19.4 µM
- TGI (DU-145 prostate): 10.2 µM
- TGI (KM12 colon): 26.1 µM
- TGI (ACHN renal): > 100 µM
- TGI (HCT-15 colon): 8.91 µM
- TGI (SF-295 CNS): > 100 µM
- TGI (HOP-92 NSCLC): 29.3 µM

Structure (SMILES): O=c1[nH]c2nc3ccccc3nc2[nH]c1=O
- TGI (UO-31 renal): > 100 µM
- TGI (NCI-H460 lung): > 100 µM
- TGI (SNB-19 CNS): > 100 µM
- TGI (NCI/ADR-RES ovarian): > 100 µM
- TGI (DU-145 prostate): > 100 µM
- TGI (KM12 colon): > 100 µM
- TGI (ACHN renal): > 100 µM
- TGI (HCT-15 colon): > 100 µM
- TGI (SF-295 CNS): > 100 µM
- TGI (HOP-92 NSCLC): > 100 µM

Structure (SMILES): C[C@]12CCC(=O)[C@@H](CCC3=CC(=O)C=CC3=O)[C@@H]1CCC2=O
- TGI (UO-31 renal): 31.1 µM
- TGI (NCI-H460 lung): 31.4 µM
- TGI (SNB-19 CNS): > 100 µM
- TGI (NCI/ADR-RES ovarian): > 100 µM
- TGI (DU-145 prostate): 40.8 µM
- TGI (KM12 colon): 32 µM
- TGI (ACHN renal): 32.5 µM
- TGI (HCT-15 colon): > 31.6 µM
- TGI (SF-295 CNS): 36.7 µM
- TGI (HOP-92 NSCLC): > 100 µM

Structure (SMILES): COc1ccccc1C1Nn2c(nc3ccccc3c2=O)N1c1ccc(C)cc1 (stereo not given)
- TGI (UO-31 renal): 21.2 µM
- TGI (NCI-H460 lung): 16.3 µM
- TGI (SNB-19 CNS): 21.2 µM
- TGI (NCI/ADR-RES ovarian): 23.6 µM
- TGI (DU-145 prostate): 28.2 µM
- TGI (KM12 colon): 60.3 µM
- TGI (ACHN renal): 16.7 µM
- TGI (HCT-15 colon): 16.9 µM
- TGI (SF-295 CNS): 17.8 µM
- TGI (HOP-92 NSCLC): 23.1 µM

Structure (SMILES): O=c1nc2c(c(-c3ccc(Br)cc3)[nH]1)COC/C2=C\c1ccc(Br)cc1
- TGI (UO-31 renal): > 50 µM
- TGI (NCI-H460 lung): > 50 µM
- TGI (SNB-19 CNS): > 50 µM
- TGI (NCI/ADR-RES ovarian): > 50 µM
- TGI (DU-145 prostate): > 50 µM
- TGI (KM12 colon): > 50 µM
- TGI (ACHN renal): > 50 µM
- TGI (HCT-15 colon): > 50 µM
- TGI (SF-295 CNS): > 50 µM
- TGI (HOP-92 NSCLC): > 50 µM

Structure (SMILES): COC(=O)C1(CCCCCBr)CCCCCCCCCCC1=O (stereo not given)
- TGI (UO-31 renal): 31.8 µM
- TGI (NCI-H460 lung): > 100 µM
- TGI (SNB-19 CNS): > 100 µM
- TGI (NCI/ADR-RES ovarian): > 100 µM
- TGI (DU-145 prostate): > 100 µM
- TGI (KM12 colon): > 100 µM
- TGI (ACHN renal): > 100 µM
- TGI (HCT-15 colon): > 100 µM
- TGI (SF-295 CNS): > 100 µM
- TGI (HOP-92 NSCLC): > 100 µM

Structure (SMILES): C/C=C(/C)C(=O)OC1CC(C)[C@H]2CC(=O)C(C)=C2CC1C(C)(C)OC(C)=O (stereo not given in full)
- TGI (UO-31 renal): 83.9 µM
- TGI (NCI-H460 lung): 42.8 µM
- TGI (SNB-19 CNS): > 100 µM
- TGI (NCI/ADR-RES ovarian): 71.7 µM
- TGI (DU-145 prostate): > 100 µM
- TGI (KM12 colon): 91.6 µM
- TGI (ACHN renal): > 100 µM
- TGI (HCT-15 colon): > 100 µM
- TGI (SF-295 CNS): > 100 µM
- TGI (HOP-92 NSCLC): 78 µM

Structure (SMILES): NC(=O)c1csc(C2(O)COC(CO)C2O)n1 (stereo not given)
- TGI (UO-31 renal): > 100 µM
- TGI (NCI-H460 lung): > 100 µM
- TGI (SNB-19 CNS): > 100 µM
- TGI (NCI/ADR-RES ovarian): > 100 µM
- TGI (DU-145 prostate): > 100 µM
- TGI (KM12 colon): > 100 µM
- TGI (ACHN renal): > 100 µM
- TGI (HCT-15 colon): > 100 µM
- TGI (SF-295 CNS): > 100 µM
- TGI (HOP-92 NSCLC): > 100 µM

Structure (SMILES): C=C1OC(c2ccccc2NC)=NC12CCCCC2
- TGI (UO-31 renal): > 100 µM
- TGI (NCI-H460 lung): > 100 µM
- TGI (SNB-19 CNS): > 100 µM
- TGI (NCI/ADR-RES ovarian): > 100 µM
- TGI (DU-145 prostate): > 100 µM
- TGI (KM12 colon): > 100 µM
- TGI (ACHN renal): > 100 µM
- TGI (HCT-15 colon): > 100 µM
- TGI (SF-295 CNS): > 100 µM
- TGI (HOP-92 NSCLC): > 100 µM
